Experiments:
splenic dendritic cells = assay: In vivo splenic dendritic cell activation; parameters: species or system mice; conditions: versus antibody treated groups
Description: For each panel, the samples are (left to right): untreated, sheep RBCs, αCD47 (MIAP301), αSIRPα (P84), mSIRPα-Fc-CD40L, mSIRPα-Fc-CD40L (24 Hrs), and αCD47 (MIAP301) (24 hrs). FIG. 9B is a quantitation of in vivo dendritic cell activation corresponding to FIG. 9A. Shown is the absolute percent of CD4+ and CD8+ dendritic cells; also gated on CD11c and DC1R2. In FIG. 9B, for each panel, the samples are (left to right): untreated, sheep RBCs, αCD47 (MIAP301), αSIRPα (P84), SIRPα-Fc-CD40L (150 μg), SIRPα-Fc-CD40L (300 μg), SIRPα-Fc-CD40L (300 μg) (24 Hrs), and αCD47 (MIAP301) (24 hrs).
An in vivo assay to examine SIRPα/CD47 function in mice was describe in Yi et al., “Splenic Dendritic Cells Survey Red Blood Cells for Missing Self-CD47 to Trigger Adaptive Immune Responses. Immunity. 2015;43(4):764-75) (the contents of which is incorporated by reference in its entirety). This assay detects the activation status of splenic dendritic cells in response to SIRPa/CD47 inhibitors or to infused sheep red blood cells (RBC).
After 6 or 24 hours, mice were euthanized and their spleens excised, dissociated, and assessed by flow cytometry for populations of activated CD4+ dendritic cells (DCs) (FIG. 9A, left panel) or CD8+dendritic cells (FIG. 9A, right panel); both populations of dendritic cells were also positive for MHC II (I-Ab), CD11c, and DC1R2.

[1] = test system: low EGFR-expressing Chronic myeloid leukemia (CML) cell line (K562); assay: Macrophage engulfment of K562 cells; assay type: cell-based, human; conditions: K562, negative control cell line
[2] = biological target: recombinant hCD47 and recombinant hCD40 (Homo sapiens, UniProt P25942+Q08722); assay: Functional dual ELISA, hCD40 capture and hCD47-His detection; assay type: binding
[3] = test system: A431, HCC827, K562, HCC1954 and MCF7 cells; assay: Macrophage phagocytosis of EGFR/HER2 human tumor cell line panel; assay type: cell-based; conditions: variety of human tumor cell lines
[4] = test system: human donor red blood cells (RBCs); assay: In vitro hemolysis assay, human erythrocytes; assay type: cell-based
Description: FIG. 22B is a graph showing RBCs and test agents that were incubated at 37° C. for 24 hours and then the media was assessed at OD490 for changes in absorbance due to hemoglobin being released from lysing RBCs. […] FIG. 22D are graphs showing that peripheral blood was isolated from mice receiving three IP doses (300 μg) of the murine SIRPα-Fc-CD40L surrogate (arrows). Cell populations were assessed by flow cytometry and included CD20+ B cells, CD110+, CD4+/CD11c+, and CD8+/CD11c+ dendritic cells.
However, the in vitro systems used to test this question have significant limitations, including a complete lack of macrophages in the test system.

CT26 tumors = assay: Syngeneic CT26 colon tumor model versus CD40/CD47 antibodies (Example 11); assay type: in vivo, mice
Description: FIG. 20C: a similar CT26 experiment was initiated as described in FIG. 20A above, however mice were pre-treated on days −1, 1, and 10 with IP injections of 100 μg of either or both CD4/CD8 depleting antibodies. Mice were inoculated with CT26 tumors on day 0 and treated at a later starting date than FIG. 20A with mSIRPα-Fc-CD40L ARC on days 7, 9, and 11. […] In FIG. 20D and FIG. 20E, BALB/C mice were inoculated with WEHI3 tumors (FIG. 20D) or A20 tumors (FIG. 20E) subcutaneously on the rear flank, and then treated via IP injection with anti-CD20 or mSIRPα-Fc-CD40L on days 7, 9, and 11 (WEHI3) or days 10, 12, and 14 (A20); when tumors were established and reached approximately 57-60 mm^3. A cohort of mice were pre-treated with an interferon alpha receptor 1 (IFNAR1) blocking antibody ([…] by IP injection) on days -1, 1, and 10 (WEHI3) or on days −1, 1, and 13 (A20). FIG. 20F to FIG. 20H are graphs showing blockade of CD4, CD8, and IFNAR1. Peripheral blood analysis by flow cytometry of CD4 (FIG. 20F), CD8 (FIG. 20G), and IFNAR1 (FIG. 20H) depletion following depleting antibody treatment corresponding to FIG. 20C to FIG. 20E. Samples were normalized to untreated animals.
Implanted CT26 tumors were allowed to grow to ˜30 mm^3 before treatment was initiated with a fixed regimen of two doses of either a CD40 agonist antibody (clone FGK4.5), a CD47 blocking antibody (clone MIAP301), a combination of the two antibodies, or the murine SIRPα-Fc-CD40L chimeric protein. […] Based on this observation, these experiments were repeated in the setting of antibody-mediated depletion of both CD4+ and CD8+ cells (FIG. 20C).
CD4 and CD8 depletion was verified in the peripheral blood at multiple time points during the experiment (see, FIG. 20F and FIG. 20G).

In the case of “SIRPα-Fc-CD40L: Generic name of the SIRPα ECD-Fc-CD40L ECD chimeric protein; human or murine version depending on the test system”, the “proportion of overall splenic DCs” value (splenic dendritic cells) is reported as “higher proportion of overall splenic DCs than was observed in the antibody treated groups”, the phagocytic activity [1] is reported as “no phagocytic activity” and the “simultaneous binding to recombinant hCD47 and recombinant hCD40” value [2] is reported as “simultaneous binding”. The “macrophage phagocytosis of tumor cells” value [3] was “stimulated macrophage phagocytosis of tumor cells”, the hemolysis in vitro [4] was “did not reveal evidence of hemolysis” and the “therapeutic benefit, requirement for CD4+ T cells” value (CT26 tumors; antibody-mediated depletion of CD4+ cells) was “partially required”. For the same substance, the “therapeutic benefit in the absence of CD8+ cells” value (CT26 tumors; antibody-mediated depletion of CD8+ cells) was “completely eliminated the therapeutic benefit” and the “proportion of AH1-tetramer positive CD8+ T cells” value (CT26 tumors; tumor and spleen, 13 days following tumor inoculation) was “increase in the proportion of AH1-tetramer positive CD8+T cells in both the tumor and spleen”.

Source: patent US20200071380A1, “COMBINATION THERAPIES COMPRISING SIRP ALPHA-BASED CHIMERIC PROTEINS” (Shattuck Labs, Inc., priority 2018, published 2020)
